Counter-ions that a name gives are not always drawn. Like-named read-outs stand apart in the source and are kept apart here.
How the values were obtained:
Assay type in all cases: cell-based
[1] = system: Candida albicans AHU 3656; test: Antifungal Test (agar dilution M.I.C.); conditions: for MIC: Candida albicans
Experimental: (§1) Respective agar plates were prepared by dissolving compounds under test in aseptic water to make a two fold dilution series, taking each 1 milliliter of said diluted solutions and 9 ml of Sabouraud medium into a petri dish, and sufficiently admixing the same.
(§2) On the other hand, an inoculum was prepared by cultivating an examined fungus (microorganism) on the Sabouraud slant medium and suspending two loopful of the incubated fungus in 10 ml of sterilized physiological saline water.
(§3) One loopful of the inoculum was streaked on the above-mentioned agar plate. After the agar plate was incubated at a defined temperature for a predetermined period of time to determine the minimal inhibitory concentration (M.I.C.).
(§4) Incubation temperature:
(§5) Incubation time: 3 days (72 hours) and
(§6) Incubation time: 3 days (72 hours)
(§7) activity incubation conditions:
(§8) Incubation time 3 days (72 hours)
(§9) Incubation time 7 days (168 hours)
(§10) Incubation time 2 days (48 hours)

[2] = system: Candida albicans NAKAGAWA IFM 4017; test: Antifungal Test (agar dilution M.I.C.); conditions: Candida albicans
Experimental: as §1, §2, §3, §4, §5, §6, §7, §8, §9, §10

[3] = system: Candida albicans Yu-1200 IFM 4020; test: Antifungal Test (agar dilution M.I.C.); conditions: Candida albicans
Experimental: as §1, §2, §3, §4, §5, §6, §7, §8, §9, §10

[4] = system: Candida albicans IFM 4080; test: Antifungal Test (agar dilution M.I.C.); conditions: for MIC: Candida albicans
Experimental: as §1, §2, §3, §4, §5, §7, §8, §9, §10

[5] = system: Candida Krusei AHU 3993; test: Antifungal test when a serum is added; conditions: Pichia kudriavzevii, 27° C, read-out: M.I.C. of serum added
Experimental: as §1, §2, §3
(§11) Minimal inhibitory concentration (M.I.C.) was determined by preparing the agar plate medium in the same manner of the preceding pharmacological test 1, except for the addition of the horse serum. The concentration of the component in the medium was finally corrected, so that it may amount to the concentration of the component when the horse serum was not added.
(§12) Incubation temperature: […]

[6] = system: Candida utilis AHU 3053; test: Antifungal test when a serum is added; conditions: Williopsis jadinii, 27° C, read-out: M.I.C. of serum added
Experimental: as §1, §2, §3, §11, §12

[7] = system: Escherichia coli E-15; test: Antibacterial Test (agar dilution M.I.C.); conditions: E15, Table 5, 37° C., 18 hours
Experimental: (§13) A compound under test was dissolved in aseptic water to prepare a two fold dilution series. Each 1 milliliter of the solution was taken in a petri dish. Nine ml of infusion agar medium (Difco) was added to the solution, thereby preparing the agar plate for test. A pre-culture of each test strain in Tripticase soy broth medium (BBL) at 37° C. for 18 hours was streaked on the above-mentioned agar plate, and the said agar plate was incubated at 37° C. for 18 hours to determine the minimal inhibitory concentration (M.I.C.).

[8] = system: Escherichia coli NIHJ JC-1; test: Antibacterial Test (agar dilution M.I.C.); conditions: NIHJJC1, Table 5, 37° C., 18 hours
Experimental: as §13

[9] = system: Klebsiella pneumonial NO-1; test: Antibacterial Test (agar dilution M.I.C.); conditions: NO1, Table 5, 37° C., 18 hours
Experimental: as §13

[10] = system: Proteus mirabilis OM-1; test: Antibacterial Test (agar dilution M.I.C.); conditions: OM1, Table 5, 37° C., 18 hours
Experimental: as §13

[11] = system: Pseudomonas aeruginosa; test: Antibacterial Test (agar dilution M.I.C.); conditions: Table 5, 37° C., 18 hours
Experimental: as §13

[12] = system: Salmonella typhimurium 1406; test: Antibacterial Test (agar dilution M.I.C.); conditions: Salmonella enterica, Table 5, 37° C., 18 hours
Experimental: as §13

[13] = system: Staphylococcus aureus 13-6; test: Antibacterial Test (agar dilution M.I.C.); conditions: 136, Table 5, 37° C., 18 hours
Experimental: as §13

[14] = system: Staphylococcus aureus 209-P JO-1; test: Antibacterial Test (agar dilution M.I.C.); conditions: Table 5, 37° C., 18 hours
Experimental: as §13

[15] = system: Streptococcus hemolyticus Y-73-5; test: Antibacterial Test (agar dilution M.I.C.); conditions: Streptococcus pyogenes, Y735; Table 5; 37° C., 18 hours
Experimental: as §13

[16] = system: Trichomonas vaginalis; test: Anti-trichomonal Test; conditions: 72 h, ASAMI medium containing 20% horse serum, 37° C., 3 days, read-out: minimal inhibitory concentration
Experimental: The compound under test was dissolved in aseptic water, and filtered aseptically to prepare a two fold dilution series. Each 2.6 ml ASAMI medium containing 20% of the horse serum were respectively taken into small test tubes. Onto the medium, there were incubated 0.3 ml of the two fold dilution solution of the compounds and 0.1 ml of the suspension of the ASAMI medium of Trichomonas vaginalis which was cultured at 37° C. for 3 days respectively. Incubation was carried out at 37° C. for 3 days to determine the minimal inhibitory concentration.

[17] = system: Staphylococcus aureus 209-P, Staphylococcus aureus 13-6 and Streptococcus pyogenes; test: Antibacterial Test (summary); conditions: 37° C., 18 hours; read-out: minimal inhibitory concentration
Experimental: as §13

[18] = system: gram-negative bacteria such as Escherichia coli NIHJ and Escherichia coli E-15; test: Antibacterial Test (summary); conditions: 18 h, 37° C., read-out: minimal inhibitory concentration
Experimental: as §13

[19] = system: Candida albicans; test: Anti-candida activity (summary)
Experimental: as §1, §2, §3, §6

[20] = Table 1, 27° C., 3 days incubation
[21] = Table 1, 27° C., 7 days incubation

Compound `N=C(N)c1cccc(OCC2CCC(COc3cccc(C(=N)N)c3)CC2)c1` (stereo not shown) [Compound A, 1,4-Bis-(m,m'-amidinophenoxymethyl)-cyclohexane-dihydrochloride] has an MIC ([1]; AHU3656, 48 h, Table 3, 37° C., 2 days) of 3.13 µg/mL, an MIC ([1]; AHU3656, 72 h, Table 3, 27° C., 3 days) of 3.13 µg/mL and an MIC ([1]; AHU3656, 168 h, Table 3, 27° C., 7 days) of 6.25 µg/mL. It also gave a M.I.C. [1, 20] of 3.13 µg/mL, a M.I.C. [1, 21] of 6.25 µg/mL and a M.I.C. ([1]; Table 2, 37° C., 3 days (72 hours)) of 3.13 µg/mL. It also gave a M.I.C. ([1]; Table 3, 37° C., 3 days) of 3.13 µg/mL, an MIC ([2]; 48 h, Table 3, 37° C., 2 days) of 0.8 µg/mL and an MIC ([2]; 72 h, Table 1, 27° C., 3 days incubation) of 3.13 µg/mL. The MIC ([2]; 72 h, Table 2, 37° C., 3 days (72 hours)) was 1.56 µg/mL, the MIC ([2]; 72 h, Table 3, 27° C., 3 days) was 3.13 µg/mL and the MIC ([2]; 72 h, Table 3, 37° C., 3 days) was 1.56 µg/mL. It also gave an MIC ([2]; 168 h, Table 1, 27° C., 7 days incubation) of 3.13 µg/mL, an MIC ([2]; 168 h, Table 3, 27° C., 7 days) of 3.13 µg/mL and an MIC ([3]; YU1200IFM4020, 48 h, Table 3, 37° C., 2 days) of 0.8 µg/mL. For the same compound, the MIC ([3]; YU1200IFM4020, 72 h, Table 1, 27° C., 3 days incubation) was < 1.56 µg/mL, the MIC ([3]; YU1200IFM4020, 72 h, Table 2, 37° C., 3 days (72 hours)) was 0.8 µg/mL and the MIC ([3]; YU1200IFM4020, 72 h, Table 3, 27° C., 3 days) was 1.56 µg/mL. For the same compound, the MIC ([3]; YU1200IFM4020, 72 h, Table 3, 37° C., 3 days) was 0.8 µg/mL, the MIC ([3]; YU1200IFM4020, 168 h, Table 1, 27° C., 7 days incubation) was 3.13 µg/mL and the MIC ([3]; YU1200IFM4020, 168 h, Table 3, 27° C., 7 days) was 3.13 µg/mL. The MIC ([4]; IFM4080, 48 h, Table 3, 37° C., 2 days) was 0.8 µg/mL, the MIC ([4]; IFM4080, 72 h, Table 3, 27° C., 3 days) was 3.13 µg/mL and the MIC ([4]; IFM4080, 168 h, Table 3, 27° C., 7 days) was 6.25 µg/mL. The M.I.C. [4, 20] was 3.13 µg/mL, the M.I.C. [4, 21] was 6.25 µg/mL and the M.I.C. ([4]; Table 3, 37° C., 3 days) was 3.13 µg/mL. For the same compound, the MIC ([5]; 72 h, 0 % horse serum, 3 days) was > 100 µg/mL, the MIC ([5]; 72 h, 10 % horse serum, 3 days) was 200 µg/mL and the MIC ([5]; 72 h, 30 % horse serum, 3 days) was 100 µg/mL. The MIC ([5]; 168 h, 0 % horse serum, 7 days) was > 100 µg/mL, the MIC ([5]; 168 h, 10 % horse serum, 7 days) was > 200 µg/mL and the MIC ([5]; 168 h, 30 % horse serum, 7 days) was 100 µg/mL. The MIC ([6]; AHU3053, 72 h, 0 % horse serum, 3 days) was 3.13 µg/mL, the MIC ([6]; AHU3053, 72 h, 10 % horse serum, 3 days) was 3.13 µg/mL and the MIC ([6]; AHU3053, 72 h, 30 % horse serum, 3 days) was < 0.8 µg/mL. The MIC ([6]; AHU3053, 168 h, 0 % horse serum, 7 days) was 3.13 µg/mL, the MIC ([6]; AHU3053, 168 h, 10 % horse serum, 7 days) was 6.25 µg/mL and the MIC ([6]; AHU3053, 168 h, 30 % horse serum, 7 days) was < 0.8 µg/mL. It also gave an MIC [7] of 200 µg/mL, an MIC [8] of 100 µg/mL and an MIC [9] of 200 µg/mL. The MIC [10] was > 200 µg/mL, the MIC [11] was > 200 µg/mL and the MIC [12] was 200 µg/mL. It also gave an MIC [13] of 6.25 µg/mL, an MIC [14] of 3.13 µg/mL and an MIC [15] of 6.25 µg/mL. It also gave an MIC [16] of 200 µg/mL, an MIC [17] of 3.13 to 6.25 µg/mL and an MIC [18] of 100 to 200 µg/mL. For the same compound, the “anti-candida activity compared with nystatin” value [19] was “more excellent anti-candida activity than that of the nystatin”.

— patent publication US4064169A, “Bis-(meta-amidinophenoxy)-compounds and pharmacologically acceptable acid addition salts thereof” (Eisai Co., Ltd., priority 1976, dated 1977)
